Test results from paper PMC11864979, “First-in-class ultralong-target-residence-time p38α inhibitors as a mitosis-targeted therapy for colorectal cancer” (Nature Cancer, 2025).
Where two headings read alike, the source gives them in different places.

Tests used:
Experiment in all cases: selectivity profiling in a panel of 340 wild-type kinases (Reaction Biology Europe)
Type in all cases: binding
340 wild-type kinases [1] = target: T1, 340 wild-type kinases (Homo sapiens, UniProt Q13237)
T1 construct: purchased Reaction Biology Europe
T1 sequence (Q13237 1-762): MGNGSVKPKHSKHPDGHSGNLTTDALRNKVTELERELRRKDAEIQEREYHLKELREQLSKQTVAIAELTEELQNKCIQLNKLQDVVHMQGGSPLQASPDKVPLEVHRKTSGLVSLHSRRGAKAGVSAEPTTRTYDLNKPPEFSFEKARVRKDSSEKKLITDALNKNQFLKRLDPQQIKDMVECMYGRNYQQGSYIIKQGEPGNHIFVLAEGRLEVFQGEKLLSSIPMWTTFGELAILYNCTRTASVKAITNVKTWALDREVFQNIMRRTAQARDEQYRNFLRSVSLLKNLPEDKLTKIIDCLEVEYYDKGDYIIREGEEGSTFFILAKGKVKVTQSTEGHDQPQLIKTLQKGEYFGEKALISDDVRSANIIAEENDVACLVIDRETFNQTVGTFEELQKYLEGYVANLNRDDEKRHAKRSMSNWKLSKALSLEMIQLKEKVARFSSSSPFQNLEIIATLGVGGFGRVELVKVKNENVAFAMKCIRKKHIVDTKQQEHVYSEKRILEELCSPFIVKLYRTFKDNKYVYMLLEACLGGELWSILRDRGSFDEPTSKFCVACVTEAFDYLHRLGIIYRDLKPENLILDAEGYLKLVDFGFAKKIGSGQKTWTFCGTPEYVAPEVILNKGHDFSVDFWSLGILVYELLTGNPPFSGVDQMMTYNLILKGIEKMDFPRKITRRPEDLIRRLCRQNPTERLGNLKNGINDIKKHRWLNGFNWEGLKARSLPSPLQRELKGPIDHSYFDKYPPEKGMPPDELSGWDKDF

340 wild-type kinases [2] = target: T2, 340 wild-type kinases (Homo sapiens, UniProt P06239)
T2 construct: purchased Reaction Biology Europe
T2 sequence (P06239 whole entry): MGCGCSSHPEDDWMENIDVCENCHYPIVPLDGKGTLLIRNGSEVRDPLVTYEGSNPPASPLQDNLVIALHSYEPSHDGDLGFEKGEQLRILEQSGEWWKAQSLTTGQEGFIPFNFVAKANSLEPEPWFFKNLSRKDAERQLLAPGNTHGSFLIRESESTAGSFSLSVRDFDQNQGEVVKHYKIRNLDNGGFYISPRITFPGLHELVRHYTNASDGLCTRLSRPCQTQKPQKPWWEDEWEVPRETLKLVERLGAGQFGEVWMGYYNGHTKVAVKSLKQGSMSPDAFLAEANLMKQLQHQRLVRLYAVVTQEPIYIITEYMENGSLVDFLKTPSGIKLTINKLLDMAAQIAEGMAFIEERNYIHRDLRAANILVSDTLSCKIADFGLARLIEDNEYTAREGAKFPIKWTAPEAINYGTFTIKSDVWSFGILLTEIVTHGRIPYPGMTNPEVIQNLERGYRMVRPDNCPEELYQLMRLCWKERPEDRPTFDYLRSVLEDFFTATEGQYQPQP

340 wild-type kinases [3] = target: T3, 340 wild-type kinases (Homo sapiens, UniProt Q8NG66)
T3 construct: purchased Reaction Biology Europe
T3 sequence (Q8NG66 1-645): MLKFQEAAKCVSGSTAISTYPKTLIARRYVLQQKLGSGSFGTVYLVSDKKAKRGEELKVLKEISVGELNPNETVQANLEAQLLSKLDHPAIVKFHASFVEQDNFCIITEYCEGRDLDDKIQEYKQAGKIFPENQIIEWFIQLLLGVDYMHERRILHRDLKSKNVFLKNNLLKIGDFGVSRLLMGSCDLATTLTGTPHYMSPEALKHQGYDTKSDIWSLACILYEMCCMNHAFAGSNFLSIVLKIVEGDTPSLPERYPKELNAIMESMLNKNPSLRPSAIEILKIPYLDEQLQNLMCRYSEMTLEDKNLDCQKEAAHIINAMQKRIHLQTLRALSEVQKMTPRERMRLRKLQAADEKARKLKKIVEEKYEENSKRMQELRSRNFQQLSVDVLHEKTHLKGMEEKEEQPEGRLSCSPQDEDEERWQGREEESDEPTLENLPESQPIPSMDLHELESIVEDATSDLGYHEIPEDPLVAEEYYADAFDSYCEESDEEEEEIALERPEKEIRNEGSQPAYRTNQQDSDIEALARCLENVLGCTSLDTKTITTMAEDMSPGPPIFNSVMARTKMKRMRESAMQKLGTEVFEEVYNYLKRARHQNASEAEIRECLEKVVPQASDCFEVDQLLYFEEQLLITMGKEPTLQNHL

340 wild-type kinases [4] = target: T4, 340 wild-type kinases (Homo sapiens, UniProt P45983)
T4 construct: purchased Reaction Biology Europe
T4 sequence (P45983 whole entry): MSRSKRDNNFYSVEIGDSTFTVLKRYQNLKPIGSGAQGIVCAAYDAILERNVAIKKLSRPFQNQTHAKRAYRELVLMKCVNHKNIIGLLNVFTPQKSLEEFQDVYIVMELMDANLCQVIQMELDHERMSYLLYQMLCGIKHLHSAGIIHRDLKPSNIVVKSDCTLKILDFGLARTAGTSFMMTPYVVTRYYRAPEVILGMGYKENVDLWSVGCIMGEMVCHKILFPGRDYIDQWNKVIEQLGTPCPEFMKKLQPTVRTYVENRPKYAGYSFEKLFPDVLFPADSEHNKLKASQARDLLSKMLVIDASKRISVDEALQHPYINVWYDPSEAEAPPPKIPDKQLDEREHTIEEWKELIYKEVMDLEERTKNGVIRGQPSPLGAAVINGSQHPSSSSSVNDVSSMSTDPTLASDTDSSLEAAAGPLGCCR

340 wild-type kinases [5] = target: T5, 340 wild-type kinases (Homo sapiens, UniProt Q9P0L2)
T5 construct: purchased Reaction Biology Europe
T5 sequence (Q9P0L2 whole entry): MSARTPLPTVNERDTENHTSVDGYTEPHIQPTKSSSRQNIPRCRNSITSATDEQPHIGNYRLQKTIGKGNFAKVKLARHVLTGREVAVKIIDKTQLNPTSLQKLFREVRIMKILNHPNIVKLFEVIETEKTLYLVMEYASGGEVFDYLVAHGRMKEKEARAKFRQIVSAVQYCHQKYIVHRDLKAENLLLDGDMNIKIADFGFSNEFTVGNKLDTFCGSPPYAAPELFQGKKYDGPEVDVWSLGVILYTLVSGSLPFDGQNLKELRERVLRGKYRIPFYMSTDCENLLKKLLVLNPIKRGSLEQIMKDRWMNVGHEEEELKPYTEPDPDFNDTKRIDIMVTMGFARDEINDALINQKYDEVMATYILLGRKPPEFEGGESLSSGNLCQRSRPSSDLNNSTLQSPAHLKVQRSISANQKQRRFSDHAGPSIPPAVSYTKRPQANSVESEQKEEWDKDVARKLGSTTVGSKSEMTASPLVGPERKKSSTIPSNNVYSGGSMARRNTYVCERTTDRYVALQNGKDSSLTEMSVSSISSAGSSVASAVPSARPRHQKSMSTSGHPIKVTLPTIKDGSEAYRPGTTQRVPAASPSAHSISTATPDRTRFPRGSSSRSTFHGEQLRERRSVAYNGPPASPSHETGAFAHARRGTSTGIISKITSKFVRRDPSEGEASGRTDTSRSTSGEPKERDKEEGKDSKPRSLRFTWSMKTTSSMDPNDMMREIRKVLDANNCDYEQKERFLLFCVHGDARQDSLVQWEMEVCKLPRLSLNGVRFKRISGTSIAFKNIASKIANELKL

340 wild-type kinases [6] = target: T6, 340 wild-type kinases (Homo sapiens, UniProt Q13705)
T6 construct: purchased Reaction Biology Europe
T6 sequence (Q13705 19-512): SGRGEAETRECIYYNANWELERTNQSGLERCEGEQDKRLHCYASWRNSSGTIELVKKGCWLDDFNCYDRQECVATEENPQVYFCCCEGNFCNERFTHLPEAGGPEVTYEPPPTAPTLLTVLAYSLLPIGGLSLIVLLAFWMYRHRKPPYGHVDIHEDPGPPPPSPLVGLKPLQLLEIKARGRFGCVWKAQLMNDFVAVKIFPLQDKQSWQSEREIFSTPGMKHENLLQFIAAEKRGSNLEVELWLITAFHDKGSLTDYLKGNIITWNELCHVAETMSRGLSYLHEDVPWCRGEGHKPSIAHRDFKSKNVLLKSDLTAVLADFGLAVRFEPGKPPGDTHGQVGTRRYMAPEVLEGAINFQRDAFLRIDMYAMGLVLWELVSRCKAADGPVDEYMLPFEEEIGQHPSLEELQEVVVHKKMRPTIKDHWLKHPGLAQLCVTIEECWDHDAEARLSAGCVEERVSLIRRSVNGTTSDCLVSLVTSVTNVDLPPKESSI

340 wild-type kinases [7] = target: T7, 340 wild-type kinases (Homo sapiens, UniProt P43405)
T7 construct: purchased Reaction Biology Europe

CNC(=O)c1ccc2c(c1)C(=O)c1ccc(Nc3ccc(F)c(NC(=O)C4CC4)c3)cc1CC2 [Compound 2015]
remaining activity at 0.2 µM (340 wild-type kinases [1]; 0.2 µM 2015, read-out: PRKG2 residual activity): 112% | remaining activity at 1 µM (340 wild-type kinases [1]; 1 µM 2015, read-out: PRKG2 residual activity): 96.9% | remaining activity at 0.2 µM (340 wild-type kinases [1]; PRKG2, 0.2 µM, read-out: residual activity): 112% | remaining activity at 1 µM (340 wild-type kinases [1]; PRKG2, 1 µM, read-out: residual activity): 96.9% | remaining activity at 0.2 µM (340 wild-type kinases [2]; 0.2 µM 2015, read-out: LCK residual activity): 104% | remaining activity at 1 µM (340 wild-type kinases [2]; 1 µM 2015, read-out: LCK residual activity): 95.6% | remaining activity at 0.2 µM (340 wild-type kinases [2]; LCK, 0.2 µM, read-out: residual activity): 104% | remaining activity at 1 µM (340 wild-type kinases [2]; LCK, 1 µM, read-out: residual activity): 95.6% | remaining activity at 1 µM (340 wild-type kinases [3]; 1 µM 2015, read-out: NEK11 residual activity): 95.8% | remaining activity at 0.2 µM (340 wild-type kinases [3]; NEK11, 0.2 µM, read-out: residual activity): 91.3% | remaining activity at 1 µM (340 wild-type kinases [3]; NEK11, 1 µM, read-out: residual activity): 95.8% | remaining activity at 0.2 µM (340 wild-type kinases [4]; 0.2 µM 2015, read-out: JNK1 residual activity): 107% | remaining activity at 1 µM (340 wild-type kinases [4]; 1 µM 2015, read-out: JNK1 residual activity): 94.2% | remaining activity at 0.2 µM (340 wild-type kinases [4]; JNK1, 0.2 µM, read-out: residual activity): 107% | remaining activity at 1 µM (340 wild-type kinases [4]; JNK1, 1 µM, read-out: residual activity): 94.2% | remaining activity at 0.2 µM (340 wild-type kinases [5]; 0.2 µM 2015, read-out: MARK1 residual activity): 97.9% | remaining activity at 1 µM (340 wild-type kinases [5]; 1 µM 2015, read-out: MARK1 residual activity): 95.7% | remaining activity at 0.2 µM (340 wild-type kinases [5]; MARK1, 0.2 µM, read-out: residual activity): 97.9% | remaining activity at 1 µM (340 wild-type kinases [5]; MARK1, 1 µM, read-out: residual activity): 95.7% | remaining activity at 0.2 µM (340 wild-type kinases [6]; 0.2 µM 2015, read-out: ACVR2B residual activity): 81.6% | remaining activity at 1 µM (340 wild-type kinases [6]; 1 µM 2015, read-out: ACVR2B residual activity): 82.3% | remaining activity at 0.2 µM (340 wild-type kinases [6]; ACVR2B, 0.2 µM, read-out: residual activity): 81.7% | remaining activity at 1 µM (340 wild-type kinases [6]; ACVR2B, 1 µM, read-out: residual activity): 82.3% | remaining activity at 0.2 µM (340 wild-type kinases [7]; 0.2 µM 2015, read-out: SYK residual activity): 95.8% | remaining activity at 1 µM (340 wild-type kinases [7]; 1 µM 2015, read-out: SYK residual activity): 85.6% | remaining activity at 0.2 µM (340 wild-type kinases [7]; SYK, 0.2 µM, read-out: residual activity): 95.8% | remaining activity at 1 µM (340 wild-type kinases [7]; SYK, 1 µM, read-out: residual activity): 85.6%
